The test system of one data set is Botrytis cinerea. Put plainly: Action against Botrytis cinerea - fungal growth assay. The format is cell-based. As to conditions: 0.002% active ingredient, PDB broth, 24° C., photometric after 3-4 days. The procedure: Conidia of the fungus from cryogenic storage are directly mixed into nutrient broth (PDB potato dextrose broth). After placing a (DMSO) solution of the test compounds (0.002% active ingredient) into a microtiter plate (96-well format) the nutrient broth containing the fungal spores is added.

One may read the melting point as the temperature, or range, at which the solid turns liquid. The inhibition is how much of the control response was suppressed. A higher inhibition goes with a response far below the control.

Compound `CC(COc1c(Br)cc(Br)cc1Br)NC(=O)c1cn(C)nc1C(F)F` (centres unmarked) [Compound 1.193, 3-difluoromethyl-1-methyl-1H-pyrazole-4-carboxylic acid [1-methyl-2-(2,4,6-tribromo-phenoxy)-ethyl]-amide] returned a melting point of 122 to 124 °C.

Turning to `Cc1cc(Br)cc(C)c1OCC(C)NC(=O)c1cn(C)nc1C(F)F` (centres unmarked) [Compound 1.168, 3-difluoromethyl-1-methyl-1H-pyrazole-4-carboxylic acid [2-(4-bromo-2,6-dimethyl-phenoxy)-1-methyl-ethyl]-amide], the melting point was in the range of 119 to 121 °C.

Compound `CC(COc1ncc(C(F)(F)F)cc1Cl)NC(=O)c1cn(C)nc1C(F)F` (centres unmarked) [Compound 1.239, 3-difluoromethyl-1-methyl-1H-pyrazole-4-carboxylic acid [2-(3-chloro-5-trifluoromethyl-pyridin-2-yloxy)-1-methyl-ethyl]-amide] registered a melting point of 115 to 118 °C. In addition, the inhibition at 0.002 % strength with Botrytis cinerea (Botrytis cinerea) is 50%.

Regarding `Cn1cc(C(=O)NC2(COc3ccc(Cl)cc3)CC2)c(C(F)F)n1` [Compound 1.221], in the data set on Botrytis cinerea, the fungal growth inhibition is reported as 50%.

The record behind these values is patent publication US8324263B2, “Microbiocidally active carboxamides” (Syngenta Crop Protection, LLC, priority 2007, dated 2012).
